Reference: US11219614B2, “Combination cancer therapy with pentaaza macrocyclic ring complex and ascorbate compound” (Galera Labs, LLC, priority 2016, dated 2022)

How the values were obtained:
[1] = test system: VEGFr inhibitor-induced pulmonary disease; settings: rat model; cited from earlier work
[2] = test system: Normal human fibroblasts (NHFs); experiment: surviving fraction of normal human fibroblasts; type: cell-based; settings: 5 μM GC4419 24 h followed by 10 pmol/cell ascorbate 1 h; FIG. 9
Experimental: FIG. 9 is a graph showing the normalized surviving fraction of normal human fibroblasts (NHFs) treated with GC4419, ascorbate, and a combination of GC4419 and ascorbate. Normal human fibroblasts (NHFs) were plated and grown in culture (low FBS media) for 48 hours. The NHFs were then treated with 5 μM GC4419 for 24 hours followed by treatment with 10 pmol/cell ascorbate for 1 hour.
Normal human fibroblasts (NHFs) were plated and grown in culture (low FBS media) for 48 hours. The NHFs were then treated with 5 μM GC4419 for 24 hours followed by treatment with 10 pmol/cell ascorbate for 1 hour.

[3] = test system: Non-small cell lung cancer cells (H1299); experiment: clonogenic cell survival assay, H1299; type: cell-based
Experimental: (§1) FIG. 1 is a plot showing the surviving fraction of H1299 cells for increasing amounts of ascorbate, as determined by a clonogenic cell survival assay used to determine the effects of the compound alone and in combination with a pentaaza macrocyclic ring complex (GC4419). Non-small cell lung cancer cells (H1299) were exponentially grown in culture for 48 hours. The cells were then treated with 5-20 μM GC4419 for 24 hours and ascorbate (Asc) for one hour, followed immediately by clonogenic assay. The cells were trypsinized, counted, replated at varying lower densities and incubated. Plates were stained and counted for clonogenic survival assays.
as §1, with “FIG. 10” for “FIG. 1”, “with either the” for “with a”, “complex (GC4419) or the pentaaza macrocyclic ring complex (GC4401).” for “complex (GC4419).”, “with ascorbate (Asc) at the concentrations shown for one hour and either 10” for “with 5-20”, “GC4419 or 10 μM GC4401” for “GC4419”, “24 hours. After 24 hours, the” for “24 hours and ascorbate (Asc) for one hour, followed immediately by clonogenic assay. The”
FIG. 11 is a graph showing the surviving fraction of H1299 cells treated with ascorbate and combinations including ascorbate and/or auranofin. […] The cells were then trypsinized, counted, replated at varying lower densities and incubated. Plates were stained and counted for clonogenic survival assays.
(§2) The effect of ascorbate was tested in a clonogenic cell survival assay to determine the effects of the compound alone and in combination with a pentaaza macrocyclic ring complex (GC4419). […] The cells were trypsinized, counted, replated at varying lower densities and incubated. Plates were stained and counted for clonogenic survival assays.
as §2, with “with the” for “with a”, “complex (GC4419) and the pentaaza macrocyclic ring complex (GC4401).” for “complex (GC4419).”
The effects of ascorbate in combination with a pentaaza macrocyclic ring complex (GC4419) was tested in a clonogenic cell survival assay to determine the effects of the combination alone and when paired with the thioredoxin reductase inhibitor auranofin. […] The cells were then trypsinized, counted, replated at varying lower densities and incubated. […]

[4] = test system: Lung cancer cells (H292); experiment: clonogenic cell survival assay, H292; type: cell-based; settings: ascorbate 1 h in combination with 5, 10 or 20 μM GC4419 24 h; compared to monotherapies; FIG. 2
Experimental: (§3) FIG. 2 is a plot showing the surviving fraction of H292 cells for increasing amounts of ascorbate, as determined by a clonogenic cell survival assay to used determine the effects of the compound alone and in combination with a pentaaza macrocyclic ring complex (GC4419). Lung cancer cells (H292) were exponentially grown in culture for 48 hours. The cells were then treated with 5-20 μM GC4419 for 24 hours, and ascorbate (Asc) for one hour, followed immediately by clonogenic assay. The cells were trypsinized, counted, replated at varying lower densities and incubated. Plates were stained and counted for clonogenic survival assays.
as §3, with “The effect” for “FIG. 2 is a plot showing the surviving fraction”, “ascorbate was tested in” for “H292 cells for increasing amounts of ascorbate, as determined by”, “to” for “to used”, “hour” for “hour,”, “followed” for “followed immediately”, “by immediate” for “by”

[Cl][Mn][Cl].c1cc2nc(c1)CN[C@H]1CCCC[C@@H]1NCCN[C@H]1CCCC[C@@H]1NC2 [GC4419]
pulmonary disease [1]: attenuate VEGFr inhibitor-induced pulmonary disease
cytotoxicity to normal cells [2]: does not increase cytotoxicity of ascorbate
cell killing (clonogenic survival) ([3]; 1 μM auranofin 24 h + 10 μM GC4419 24 h + 10 pmol/cell ascorbate 1 h, compared to control, monotherapies and pairwise combinations, FIG. 11): also resulted in significant enhancements in cell killing
cell killing (clonogenic survival) ([3]; 10 μM GC4419 24 h + 10 pmol/cell ascorbate 1 h, compared to control and monotherapies, FIG. 11): significant enhancements in cell killing
cell killing (clonogenic survival) ([3]; ascorbate 1 h in combination with 5 μM or 20 μM GC4419 24 h, compared to ascorbate or GC4419 monotherapies, FIG. 1): significant enhancements in cell killing
cell killing (clonogenic survival) ([3]; ascorbate 1 h in combination with 10 μM complex 24 h, compared to control, FIG. 10): significant enhancements in cell killing
cell killing (clonogenic survival) [4]: significant enhancements in cell killing
